Experimental data reported in paper PMC9849758, “Chemically diverse activity-based probes with unexpected inhibitory mechanisms targeting trypsin-like serine proteases” (Frontiers in Chemistry, 2023).
Where two headings read alike, the source gives them in different places.

Legend:
Assay in all cases: IC50 determination, spectrophotometric protease assay
Format in all cases: biochemical
[1] = target: T1, Trypsin-3 (recombinant trypsin-3) (Homo sapiens, UniProt P35030)
T1 construct: purchased R&D
T1 sequence (P35030 1-304): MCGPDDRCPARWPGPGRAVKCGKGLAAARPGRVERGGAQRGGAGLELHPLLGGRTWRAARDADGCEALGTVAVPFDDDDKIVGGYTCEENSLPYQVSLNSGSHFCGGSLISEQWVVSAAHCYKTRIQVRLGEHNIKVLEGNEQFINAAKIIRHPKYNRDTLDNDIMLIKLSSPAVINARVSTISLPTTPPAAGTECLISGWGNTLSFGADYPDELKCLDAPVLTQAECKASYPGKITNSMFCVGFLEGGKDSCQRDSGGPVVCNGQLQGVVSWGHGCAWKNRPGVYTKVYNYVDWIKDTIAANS
Description: (§1) The IC50 values were determined using a spectrophotometric assay. All the experiments were conducted in duplicate. The readout consisted of evaluating the protease-mediated release of the chromophore para-nitroaniline (pNA) or fluorophore 7-amino-4-methyl coumarin (AMC) moieties from the respective substrates. Enzymatic activity was measured for 30 min at 37°C. All compounds were initially screened at three concentrations (10, 1, and .1 μM) to estimate the range of the IC50 value. Those which were able to reduce protease activity by at least 50% at a concentration of 10 μM were submitted to an exact IC50 determination. […] A third independent experiment was performed when the standard deviation of the two independent experiments was higher than […]. IC50 values were obtained by fitting the data with the four-parameter logistics equation using GraphPad Prism 9.
(§2) The conditions for each protease are described as follows, the concentration of substrate used was at the corresponding Km.

[2] = target: T2, Thrombin (recombinant thrombin) (Homo sapiens, UniProt P00734)
T2 construct: purchased R&D
Description: as §1, §2

[3] = target: T3, TLCK-treated pancreatic bovine chymotrypsin (Bos taurus, UniProt P00766)
T3 construct: TLCK-treated pancreatic bovine chymotrypsin (Sigma-Aldrich); purchased Sigma-Aldrich; host or cells: bovine pancreas
Description: as §1, §2

[4] = target: T4, uPA (recombinant urokinase plasminogen activator) (Homo sapiens, UniProt P00749)
T4 construct: purchased HYPHEN BioMed
Description: as §1, §2

[5] = target: T5, β-tryptase (recombinant tryptase β-2) (Homo sapiens, UniProt P20231)
T5 construct: purchased EnzoLife Sciences
T5 sequence (P20231 31-275): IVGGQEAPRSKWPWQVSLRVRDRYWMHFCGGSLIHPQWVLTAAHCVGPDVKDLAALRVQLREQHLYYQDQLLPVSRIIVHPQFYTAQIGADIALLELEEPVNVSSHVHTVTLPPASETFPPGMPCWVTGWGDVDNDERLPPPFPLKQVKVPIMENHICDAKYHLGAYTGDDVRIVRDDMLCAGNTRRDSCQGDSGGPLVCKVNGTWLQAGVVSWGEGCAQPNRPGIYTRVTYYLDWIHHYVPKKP
Description: as §1, §2

[6] = target: T6, Cathepsin G (cathepsin G human neutrophil) (Homo sapiens, UniProt P08311)
T6 construct: Cathepsin G (cathepsin G human neutrophil, Sigma-Aldrich); purchased Sigma-Aldrich; host or cells: human neutrophil
T6 sequence (P08311 21-255): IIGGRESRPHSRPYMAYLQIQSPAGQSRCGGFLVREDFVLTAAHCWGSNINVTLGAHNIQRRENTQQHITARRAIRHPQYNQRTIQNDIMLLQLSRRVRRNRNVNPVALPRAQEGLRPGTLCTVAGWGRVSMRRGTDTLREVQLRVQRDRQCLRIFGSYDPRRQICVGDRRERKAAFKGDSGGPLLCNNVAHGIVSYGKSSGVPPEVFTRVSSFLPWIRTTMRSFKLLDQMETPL
Description: as §1, §2

[7] = target: T7, Neutrophil Elastase (recombinant neutrophil elastase) (Homo sapiens, UniProt P08246)
T7 construct: purchased Enzo LifeSciences
T7 sequence (P08246 30-267): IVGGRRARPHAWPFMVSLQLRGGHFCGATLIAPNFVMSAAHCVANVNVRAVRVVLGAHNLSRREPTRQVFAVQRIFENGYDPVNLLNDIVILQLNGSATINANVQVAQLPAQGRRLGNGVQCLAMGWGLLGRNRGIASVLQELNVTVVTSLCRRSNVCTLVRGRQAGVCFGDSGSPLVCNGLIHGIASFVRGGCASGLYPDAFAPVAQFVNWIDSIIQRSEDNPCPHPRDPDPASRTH
Description: as §1, §2

[8] = alkyne probes, 15 min preincubation at 37°C, mean ± SD

Row | SMILES | IC50 [1] [µM] | Trypsin-3 IC50 [1, 8] | IC50 [2] [µM] | IC50 [3] [µM] | IC50 [4] [µM] | IC50 [5] [µM] | IC50 [6] [µM] | IC50 [7] [µM] | IC50 ([1]; read-out: Trypsin-3 IC50, biotin probes, 15 min preincubation at 37 °C, mean ± SD) [µM] | IC50 ([2]; read-out: Thrombin IC50, biotin probes, 15 min preincubation at 37 °C, mean ± SD) [µM] | IC50 ([3]; read-out: ChTryp IC50, biotin probes, 15 min preincubation at 37 °C, mean ± SD) [µM] | IC50 ([4]; read-out: uPA IC50, biotin probes, 15 min preincubation at 37 °C, mean ± SD) [µM] | IC50 ([5]; read-out: β-tryptase IC50, biotin probes, 15 min preincubation at 37 °C, mean ± SD) [µM] | IC50 ([6]; read-out: CatG IC50, biotin probes, 15 min preincubation at 37 °C, mean ± SD) [µM] | IC50 ([7]; read-out: NE IC50, biotin probes, 15 min preincubation at 37 °C, mean ± SD) [µM] | ChTryp IC50 [3, 8] | CatG IC50 [6, 8]
1 | C#CCCCOC(=O)NC(CCCCN)P(=O)(Oc1ccccc1)Oc1ccccc1.O=C(O)C(F)(F)F (centres unmarked) [29b] | 0.07 ± 0.02 | nanomolar inhibition | 7.36 ± 0.25 | 5.87 ± 3.39 | 5.27 ± 0.15 | 3.96 ± 0.5 | > 10 | > 10 | – | – | – | – | – | – | – | – | –
2 | C#CCCCOC(=O)NC(c1ccc(N)cc1)P(=O)(Oc1ccc(Cl)cc1)Oc1ccc(Cl)cc1 (centres unmarked) [21b] | – | – | – | – | > 10 | > 10 | > 10 | – | – | – | – | – | – | – | – | – | –
3 | O=C(CCCCC1SCC2NC(=O)NC21)NCCOCCOCCOCCn1cc(CCCOC(=O)NC(Cc2ccccc2)P(=O)(Oc2ccccc2)Oc2ccccc2)nn1 (centres unmarked) [compound 43] | – | – | – | – | – | – | – | – | > 10 | > 10 | 2.64 | > 10 | > 10 | 2.77 | > 10 | – | –
4 | CC(C)C(NC(=O)OCCCc1cn(CCOCCOCCOCCNC(=O)CCCCC[C@H]2NC(=O)N[C@H]2C)nn1)P(=O)(Oc1ccccc1)Oc1ccccc1 (some centres unmarked) [compound 44] | > 10 | – | > 10 | > 10 | > 10 | > 10 | > 10 | 4.7 ± 0.2 | – | – | – | – | – | – | – | – | –
5 | C#CCCCOC(=O)NC(Cc1ccc(CNC(=N)N)cc1)P(=O)(Oc1ccccc1)Oc1ccccc1 (centres unmarked) [40b] | > 10 | – | > 10 | > 10 | > 10 | > 10 | 6.16 ± 0.48 | > 10 | – | – | – | – | – | – | – | – | –
6 | C[C@@H]1NC(=O)N[C@@H]1CCCCCC(=O)NCCOCCOCCOCCn1cc(CCCOC(=O)NC(Cc2ccccc2)P(=O)(Oc2ccccc2)Oc2ccccc2)nn1 (some centres unmarked) [compound 42] | > 10 | – | > 10 | 2.07 ± 0.85 | > 10 | > 10 | 3.23 ± 0.29 | > 10 | – | – | – | – | – | – | – | – | –
7 | C#CCCCOC(=O)NC(Cc1ccc(N)cc1)P(=O)(Oc1ccc(NC(C)=O)cc1)Oc1ccc(NC(C)=O)cc1 (centres unmarked) [17b] | 3.71 ± 0.71 | – | 2.97 ± 0.07 | 0.49 ± 0.28 | > 10 | > 10 | 0.37 ± 0.008 | > 10 | – | – | – | – | – | – | – | submicromolar | submicromolar
8 | C#CCCCOC(=O)NC(C1CCNCC1)P(=O)(Oc1ccccc1)Oc1ccccc1 (centres unmarked) [23b] | > 10 | – | > 10 | > 10 | > 10 | > 10 | > 10 | > 10 | – | – | – | – | – | – | – | – | –
9 | C#CCCCOC(=O)NC(Cc1ccccc1)P(=O)(Oc1ccccc1)Oc1ccccc1 (centres unmarked) [compound 12] | > 10 | – | > 10 | 1.54 ± 1.34 | > 10 | > 10 | > 10 | > 10 | – | – | – | – | – | – | – | – | –
